Test results from patent US8592603B2, “Synthesis of 2-(4-aminophenyl) benzothiazole derivatives and use thereof” (Kaohsiung Medical University, priority 2011, dated 2013).

Experiments:
BCC cells [1] = assay: Annexin V and PI binding assay; format: cell-based, human; details: for apoptotic cells (annexin V+/PI−): BCC cells, 1 J/cm^2 UVA
Experimental: (§1) (A) The increased enzymatic activities of the caspase-3 in apoptotic were determined by colorimetric reaction. The cleavage of peptide by the caspase releases the chromophore pNA (p-nitroaniline), which can be quantified spectrophotometrically at a wavelength of 405 nm. (B) Dot plots for BCC cells treated with various concentrations of 6f-UVA and then stained with PI and an annexin V-FITC conjugate specifically detecting the exposure of PS residues at the cell surface. (C) Morphological observation and annexin V/PI double stain were used for the detection of fibroblasts apoptosis. Approximately 10000 cells from each group were analyzed by flow cytometry. Data shown are of a representative experiment repeated three times with similar results. ** p<0.01 as compared with the control.
(§2) To assess the simultaneous observation of early phase of apoptotic and necrotic features, BCC cells were treated with various concentrations (0-4 μM) of Formula 6f for 4 h before irradiation. Twenty-four hours after irradiation, cells were harvested by trypsinization and centrifugation and measured by cytometry by adding annexin V-FITC to […] per sample according to the manufacturer's specifications (Bender MedSystems, Vienna, Austria). Simultaneously, the cells were stained with PI. Flow cytometry data were analyzed by the WinMDI software.

BCC cells [2] = assay: Determination of intracellular ROS level (DCFH-DA); format: cell-based, human; details: BCC cells, 6f-UVA, DCFH-DA probe (FIG. 5A)
Experimental: (§3) (A) 6f-UVA induced ROS generation in BCC cells. Histogram of fluorescence vs cell count in BCC cells with various concentrations of 6f-UVA and stained with DCFH-DA. As a control, ROS was measured in the presence of catalase, a H2O2 scavenger. (B) The ΔΨmt of BCC cells after exposure to 6f-UVA. Cells were treated with 0, 2, and 4 μM Formula 6f for 4 h followed by 1 J/cm2 UVA irradiation, then stained with DiOC6 and analyzed immediately by flow cytometry as described under Materials and Methods. The number in M1 indicates the percentage of cells with reduced ΔΨmt. Approximately 10000 cells from each group were analyzed by flow cytometry. (C) Relative ATP levels were calculated as the percentage of the 0 μM level. Similar results were obtained in three independent experiments. *p<0.05, ** p<0.01 as compared with the control.
To evaluate intracellular reactive oxygen species (ROS) levels, 2′,7′-dichlorofluorescein diacetate (DCFH-DA, Molecular Probes) fluorescent dye was used to clarify this issue. The nonpolar DCFH-DA is converted to the polar derivative DCFH by esterases when it is taken up by the cell. DCFH is nonfluorescent but is rapidly oxidized to the highly fluorescent DCF by intracellular H2O2 or nitric oxide. […] The fluorescence of the samples was measured with a flow cytometer. The 2′,7′-dichlorofluorescein (DCF) data were recorded using FL-1 photomultiplier.

JNK MAPK = assay: Western blot analysis of MAPK phosphorylation: JNK; format: cell-based, human; details: BCC cells, 6f-UVA (FIG. 6A)
Experimental: (A) After exposure to different concentration of 6f-UVA, cell lysates were collected and immunoblotted with specific antibodies as indicated. For the internal control, the same amounts of protein extract were also probed with antibody against actin. (B) As a control, the expression level of p-ERK was determined in the presence of oligomycin (25 μM) and ATP (1×10^−4M)
Total cell extracts from cultured BCC cells were obtained by lysing the cells in ice-cold RIPA buffer (1×PBS, 1% NP-40, 0.5% sodium deoxycholate, 0.1% SDS) containing 100 μg/mL PMSF, 2 μg/mL aprotinin, 2 μg/mL leupeptin and 100 μg/mL NaF. After centrifugation at 14,000 g for 30 min, protein in the supernatants was quantified by Bradford method (Bio-Rad). Forty micrograms of protein per lane was applied in 10% SDS-poly-acrylamide gel. After electrophoresis, protein was transferred from the gel to polyvinylidene difluoride (PVDF) membrane (Millipore, Bedford, Mass.). The membranes were blocked at room temperature for 1 h in PBS+0.1% Tween 20 (PBS-T) containing 5% skim milk. After being briefly rinsed with PBS-T, the blots were probed with respective primary antibodies at room temperature for 2 h or at 4° C. overnight. […] The relative amounts of specific proteins were quantified by densitometry scanning of X-ray films and analyzed by Eagle Eye Image System (Stratagene, La Jolla, Calif.)

BCC cells [3] = assay: ATP content bioluminescence assay; format: cell-based, human
Experimental: as §3
The amount of intracellular ATP was determined by bioluminescent assay based on the measurement of the light output of the luciferin-luciferase reaction. After treatment with various concentrations of 6f-UVA, total cell extracts from cultured BCC cells were obtained immediately by lysing solution. After centrifugation to remove cell debris, the supernatants were collected for ATP measurement. The total amount of intracellular ATP was determined according to the protocol provided with the ATPLite assay kit (Perkin Elmer, Boston, Mass.).

[4] = system: human dermal fibroblast cells; assay: Morphology observation and annexin V/PI binding assay on normal cells; format: cell-based; details: 4 μM for 4 h, 1 J/cm2 UVA (FIG. 4C)
Experimental: as §1, §2
BCC or fibroblasts (5×10^5 cells/well) seeded on 6 well plate. […]

Nc1ccc(-c2nc3ccc(C(F)(F)F)cc3s2)cc1 [Formula 6f, 2-(4-Aminophenyl)-6-trifluoromethylbenzothiazole]
necrotic cells (annexin V+/PI+) (BCC cells [1]; BCC cells, 0, 2, and 4 μM, 1 J/cm^2 UVA (FIG. 4B)): no obvious change | apoptotic cells (annexin V+/PI−) (BCC cells [1]; 2 μM): 19.5% | apoptotic cells (annexin V+/PI−) (BCC cells [1]; 4 μM): 27.5% | intracellular H2O2 levels (BCC cells [2]): significantly increased | phosphorylation of JNK MAPK (JNK MAPK): did not stimulate the phosphorylation | decrease of intracellular ATP content compared with untreated control (BCC cells [3]; 2 μM 6f-UVA): about 30% | decrease of intracellular ATP content compared with untreated control (BCC cells [3]; 4 μM 6f-UVA): ~45% | apoptotic activity on normal cells [4]: no significant apoptotic effect
